# Results: paper PMC2151583 (The Journal of General Physiology, 2006)
# Numbering of substitutions follows the chain as printed.
# Tests used:
# Assay in all cases: inside-out patch clamp, Xenopus oocytes
# HCN2 [1] = target: T1, HCN2 (Mus musculus, UniProt O88703); type: cell-based
# T1 sequence (O88703 1-863): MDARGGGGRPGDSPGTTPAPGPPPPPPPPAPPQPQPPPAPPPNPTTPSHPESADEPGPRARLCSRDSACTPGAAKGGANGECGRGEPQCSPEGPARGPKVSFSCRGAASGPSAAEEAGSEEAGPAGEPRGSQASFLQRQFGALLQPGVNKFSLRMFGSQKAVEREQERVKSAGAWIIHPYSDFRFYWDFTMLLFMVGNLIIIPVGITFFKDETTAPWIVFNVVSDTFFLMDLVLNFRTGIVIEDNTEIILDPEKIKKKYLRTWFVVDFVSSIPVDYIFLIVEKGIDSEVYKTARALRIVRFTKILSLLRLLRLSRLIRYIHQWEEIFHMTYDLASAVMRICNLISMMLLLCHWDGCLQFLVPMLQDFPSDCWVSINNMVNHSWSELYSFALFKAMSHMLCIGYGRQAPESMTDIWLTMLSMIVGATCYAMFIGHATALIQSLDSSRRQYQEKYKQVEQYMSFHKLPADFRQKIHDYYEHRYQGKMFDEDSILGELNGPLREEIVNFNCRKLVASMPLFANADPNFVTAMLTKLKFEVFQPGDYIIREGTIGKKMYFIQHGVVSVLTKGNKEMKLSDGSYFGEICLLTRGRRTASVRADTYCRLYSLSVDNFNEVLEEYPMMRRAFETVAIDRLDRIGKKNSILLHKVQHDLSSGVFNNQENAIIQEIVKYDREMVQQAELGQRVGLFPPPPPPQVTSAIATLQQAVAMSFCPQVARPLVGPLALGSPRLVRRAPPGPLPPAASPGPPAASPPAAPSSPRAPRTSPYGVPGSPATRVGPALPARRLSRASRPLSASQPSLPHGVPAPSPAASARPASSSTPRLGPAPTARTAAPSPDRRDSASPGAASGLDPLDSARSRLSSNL
# HCN2 [2] = target: T1, HCN2; type: cell-based; remark: listed apart in the source
# HCN2/FPN = target: T2, HCN2/FPN (Mus musculus, UniProt O88703, Q450F/E451P/K452N); type: cell-based
# T2 sequence (O88703 1-863 Q450F/E451P/K452N): T1 sequence (O88703 1-863) with Q450F, E451P, K452N
# HCN2 [3] = target: T1, HCN2; type: biochemical
Molecule,"inside-out patch clamp, Xenopus oocytes; shift in V1/2 at 25 μM (HCN2 [1])","inside-out patch clamp, Xenopus oocytes; shift in V1/2 at 1 μM (HCN2 [2])",also measured
"CCCCCCCC(=O)OC[C@H](COP(=O)(O)O[C@H]1[C@H](O)[C@@H](OP(=O)(O)O)[C@H](OP(=O)(O)O)[C@@H](OP(=O)(O)O)[C@H]1O)OC(=O)CCCCCCC [diC8 PI(3,4,5)P3, dioctanoyl phosphatidylinositol 3,4,5-trisphosphate]",9.3 mV,,
"phosphatidylinositol 4,5-bisphosphate [native PI(4,5)P2]",,+31.8 mV,
"CCCCCCCC(=O)OC[C@H](COP(=O)(O)O[C@H]1[C@H](O)[C@@H](O)[C@H](OP(=O)(O)O)[C@@H](OP(=O)(O)O)[C@H]1O)OC(=O)CCCCCCC [diC8 PI(3,4)P2, dioctanoyl phosphatidylinositol 3,4-bisphosphate]",12.3 mV,,
"CCCCCCCC(=O)OC[C@H](COP(=O)(O)O[C@@H]1[C@H](O)[C@H](O)[C@@H](OP(=O)(O)O)[C@H](OP(=O)(O)O)[C@H]1O)OC(=O)CCCCCCC [diC8 PI(4,5)P2, dioctanoyl phosphatidylinositol 4,5-bisphosphate]",,,"inside-out patch clamp, Xenopus oocytes; shift in V1/2 at 25 μM (HCN2/FPN): +13.9 mV; EC50 (HCN2 [3]): 10.9 µM"
"CCCCCCCC/C=C\CCCCCCCC(=O)SCCNC(=O)CCNC(=O)[C@H](O)C(C)(C)COP(=O)(O)OP(=O)(O)OC[C@H]1O[C@@H](n2cnc3c(N)ncnc32)[C@H](O)[C@@H]1OP(=O)(O)O [oleoyl CoA, Oleoyl CoA]",,+16.0 mV,
"CCCCCCCC(=O)OC[C@H](COP(=O)(O)O[C@H]1[C@H](O)[C@@H](O)[C@H](OP(=O)(O)O)[C@@H](O)[C@H]1O)OC(=O)CCCCCCC [diC8 PI(4)P, dioctanoyl phosphatidylinositol 4-phosphate]",7.5 mV,,
